# Source: patent US20030153506A1, “Combination product comprising melagatran and factor VIIa inhibitor” (priority 2000, published 2003)
# Legend:
# [1] = system: Platelet poor plasma; assay: APTT clotting time in spiked platelet poor plasma, synergy model (Berenbaum); format: biochemical, human; conditions: for concentration of A required to reach the same APTT prolongation as that of the mixture (Ae): calculated from Eq 1; for concentration of B required to reach the same APTT prolongation as that of the mixture (Be): calculated from Eq 2
# Protocol: Human blood from healthy volunteers, both men and women, was collected in 50 mL conical plastic tubes containing 5 mL of 0.13 mol/L of buffered tri-sodium citrate. The blood was immediately chilled on ice and centrifuged at […] for 20 minutes. Platelet poor plasma was then divided into fractions of 10 mL each and “spiked” with melagatran (Compound A) or with the title compound of Example 1 above (Compound B) to a final concentration that prolonged APTT by approximately 20%, 40%, 60% and 100%, respectively.
# APTT was determined as follows: 100 μL of pre-warmed APTT reagent (Stago Diagnostica) was added to 100 μL of pre-warmed plasma and incubated for 180 s at 37° C. Coagulation was initiated by the addition of 100 μL of CaCl2 (0.025 mol/L). The clotting time was measured with a KC 10 Coagulometer, coupled to a CR-A calculator, CR 10 printer and PR60 heat block (Amelung GmbH, Lemago Germany). Each clotting test was performed in duplicate and the mean clotting time was used.
# APTT for Compound A and Compound B were tested at 4 different concentrations and the results are shown in Table 1, in which Cp A and Cp B are the plasma concentrations of Compounds A and B, respectively. APTT values are expressed in seconds and, within brackets, as percentage prolongation over the baseline value.
# In order to test a possible synergistic effect between Compounds A and B the following model was used. The concentrations of Compounds A and B that caused about 20%, 40% and 60% prolongation of APTT were first determined (Table 1). Equipotent concentrations of Compounds A and B, e.g. 0.08 μmol/L of A and 1.5 μmol/L of B, were then mixed and APTT for the mixtures were determined as above. An indication of synergy is obtained if APTT for this mixture is longer than APTT for a “mixture” of equipotent concentrations of Compound A itself (i.e. Compound A+Compound A at a concentration that prolongs APTT by 20% (0.08 μmol/L+0.08 μmol/L=0.16 μmol/L)). However, a true synergistic effect between two compounds can never be established unless the dose response curves for both individual compounds are known and all data applied to the algebraic model of Berenbaum's equation (see Clin. Exp. Immunol. (1977) 28, 18): […]
# (Cp A in mixture/Ae)+(Cp B in mixture/Be)<1
# In this equation, CpA and CpB are the plasma concentrations of Compounds A and B, respectively in the mixture, and Ae and Be are individual concentrations of Compounds A and B that are required to obtain the same APTT results as that of the mixture. These concentrations can be calculated from the linear dose-responses for Compounds A and B, respectively (Equations 1 and 2).
# [2] = biological target: T1, Human α-thrombin (Homo sapiens, UniProt P00734); assay: Test B: thrombin inhibition, chromogenic robotic assay; format: biochemical; conditions: S-2366 0.30 mmol/L, 40 min 37° C.
# T1 construct: Human α-thrombin, Sigma Chemical Co. or Hematologic Technologies; purchased Sigma Chemical Co. or Hematologic Technologies
# Protocol: Determination of Thrombin Inhibition with a Chromogenic, Robotic Assay
# Thrombin inhibitor potency was measured with a chromogenic substrate method, in a Plato 3300 robotic microplate processor (Rosys AG, CH-8634 Hombrechtikon, Switzerland), using 96-well, half volume microtitre plates (Costar, Cambridge, Mass., U.S.A.; Cat No 3690). Stock solutions of test substance in DMSO (72 μL), 0.1-1 mmol/L, were diluted serially 1:3 (24+48 μL) with DMSO to obtain ten different concentrations, which were analysed as samples in the assay. 2 μL of test sample was diluted with 124 μL assay buffer, 12 μL of chromogenic substrate solution (S-2366, Chromogenix, Mölndal, Sweden) in assay buffer and finally 12 μL of α-thrombin solution (Human α-thrombin, Sigma Chemical Co. or Hematologic Technologies) in assay buffer, were added, and the samples mixed. The final assay concentrations were: test substance 0.00068-13.3 μmol/L, S-2366 0.30 mmol/L, α-thrombin 0.020 NIHU/mL. The linear absorbance increment during 40 minutes incubation at 37° C. was used for calculation of percentage inhibition for the test samples, as compared to blanks without inhibitor. The IC50-robotic value, corresponding to the inhibitor concentration which causes 50% inhibition of the thrombin activity, was calculated from a log concentration vs. % inhibition curve.
# [3] = biological target: T2, Recombinant human factor VIIa (Homo sapiens, UniProt P08709); assay: Test A: chromogenic robot method for Factor VIIa; format: biochemical
# T2 construct: Recombinant human factor VIIa (rFVIIa, product no 407); purchased American Diagnostica Inc. product no 407 (rFVIIa); product no 4500 (rTF)
# Protocol: Chromogenic Robot Method for Factor VIIa:
# The chromogenic substrate Spectrozyme FVIIa, CH3SO2-D-CHA-But-Arg-pNA (pefachrome 5979 from Pentapharm, Switzerland) was purchased from American-Diagnostica Inc. (Greenwich, Conn., U.S.A.). The KM under the conditions of the assay was determined separately. Recombinant human factor VIIa (rFVIIa, product no 407) and non-lipidated recombinant human tissue-factor (rTF, product no 4500) were purchased from American Diagnostica Inc. The stock solutions of rFVIIa (1.08 mg protein dissolved with 1 mL water to 21.6 μM in 20 mM Tris-HCl, 100 mM NaCl, pH 7.4) and rTF (1 mg protein with 1.5 mL water to 19 μM in 50 mM Tris-HCl, pH 8.0, 150 mM NaCl, CHAPS (3-((3-cholamidopropyl)dimethylammoniol)-1-propanesulphonate; 10 mM) and 200 mM mannitol) were stored in 0.5 mL reagent tubes at −80° C. […] After mixing and incubation for 40 minutes at 37° C., the optical absorbance difference was read at 405 nm. The IC50 value for each compound was calculated by non-linear regression to the equation:
# Where AI=the final absorbance at 405 nm in the presence of the inhibitor, A0=in the absence of inhibitor, and s the slope in the dose titration curve, which has the theoretical value of 1 for a pure competitive inhibitor. […]
# [4] = system: human plasma; assay: Test C: prothrombin time (PT) assay; format: biochemical; conditions: Thromborel S, doubling of the clotting time
# Protocol: Prothrombin Time (PT) Assay
# The following reagents were prepared: An aliquot of a frozen human plasma pool, containing citrate as an anticoagulant, was rapidly thawed at 37° C. A 10 mM stock solution of the inhibitor in DMSO was diluted with saline containing 0.1% BSA to a final 1% of DMSO. Series dilutions were made in steps of 1:3 for a dose response titration. Thromborel® S from Dade Behring GmbH (Marburg, Germany), was reconstituted 1:10 with 25 mM CaCl2, according to the instructions of the manufacturer. 2.5μL of inhibitor was mixed with 22.5 μL human plasma, incubated for 1 min. at 37° C. in the cup of an Amelung KC10 microcoagulometer from Heinrich Amelung GmbH (Lemgo, Germany). Coagulation was initiated by addition of 50 μL Thromborel S, which was pre-warmed at 37° C. The time to clot was determined (CTI) for each inhibitor concentration ([I]) in duplo. A titration curve was made by plotting the inverse clotting time versus the inhibitor concentration. The IC50 value, the time to double the clotting time, was determined by non-linear regression to the equation:
# CT0/CTI=1/(1+([I]/IC50)^S)
# where “CT0”=the clotting time without inhibitor added, and “s” the slope.
# [5] = mixture 0.08 (A) + 1.5 (B) μmol/L
# [6] = mixture 0.18 (A) + 3.2 (B) μmol/L
# [7] = mixture 0.27 (A) + 4.9 (B) μmol/L
# T2 sequence (P08709 213-466 limits assumed): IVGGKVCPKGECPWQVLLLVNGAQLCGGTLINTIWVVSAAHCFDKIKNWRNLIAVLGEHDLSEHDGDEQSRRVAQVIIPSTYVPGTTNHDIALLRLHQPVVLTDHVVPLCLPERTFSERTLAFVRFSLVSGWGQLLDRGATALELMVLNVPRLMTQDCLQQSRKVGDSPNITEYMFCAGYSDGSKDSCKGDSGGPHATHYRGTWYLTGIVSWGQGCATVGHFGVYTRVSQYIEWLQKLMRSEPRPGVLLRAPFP
# T2 sequence (P08709 61-212 limits assumed): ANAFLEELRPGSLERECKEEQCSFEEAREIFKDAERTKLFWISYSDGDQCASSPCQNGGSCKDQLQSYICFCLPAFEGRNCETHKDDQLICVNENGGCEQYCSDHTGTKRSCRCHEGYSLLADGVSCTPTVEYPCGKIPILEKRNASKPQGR
# T2 sequence (P13726 33-295 partner): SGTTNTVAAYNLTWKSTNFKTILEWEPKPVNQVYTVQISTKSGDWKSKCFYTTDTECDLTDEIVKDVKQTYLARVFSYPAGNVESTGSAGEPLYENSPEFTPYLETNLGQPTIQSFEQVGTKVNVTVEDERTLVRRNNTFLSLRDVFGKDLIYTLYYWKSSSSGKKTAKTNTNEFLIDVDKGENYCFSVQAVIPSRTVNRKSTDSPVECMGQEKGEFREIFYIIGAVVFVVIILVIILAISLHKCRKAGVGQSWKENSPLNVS
smiles,measurement,setting,value
"N=C(N)c1ccc(CNC(=O)[C@@H]2CCN2C(=O)[C@H](NCC(=O)O)C2CCCCC2)cc1 [Compound A, HOOC—CH2—(R)Cgl-Aze-Pab-H]",APTT,"[1]; Compound A + A, 0.08 + 0.08 = 0.16 μmol/L",51.8 s
same,APTT,"[1]; Compound A + A, 0.18 + 0.18 = 0.36 μmol/L",62.4 s
same,APTT,"[1]; Compound A + A, 0.27 + 0.27 = 0.54 μmol/L",71.9 s
same,APTT percentage prolongation over the baseline value,[1]; Cp A 0.08 μmol/L,24%
same,APTT,"[1]; Cp A 0.08 μmol/L, baseline 36.8 s",45.8 s
same,APTT percentage prolongation over the baseline value,[1]; Cp A 0.18 μmol/L,46%
same,APTT,"[1]; Cp A 0.18 μmol/L, baseline 36.8 s",53.8 s
same,APTT percentage prolongation over the baseline value,[1]; Cp A 0.27 μmol/L,61%
same,APTT,"[1]; Cp A 0.27 μmol/L, baseline 36.8 s",59.2 s
same,APTT percentage prolongation over the baseline value,[1]; Cp A 0.56 μmol/L,96%
same,APTT,"[1]; Cp A 0.56 μmol/L, baseline 36.8 s",72.1 s
same,concentration of A required to reach the same APTT prolongation as that of the mixture (Ae),[1]; [5],0.21 µmol/L
same,concentration of A required to reach the same APTT prolongation as that of the mixture (Ae),[1]; [6],0.53 µmol/L
same,concentration of A required to reach the same APTT prolongation as that of the mixture (Ae),[1]; [7],0.83 µmol/L
"CC(C)C[C@H](NC(=O)[C@H](NS(=O)(=O)Cc1cccc(C(=O)O)c1)C(C)C)C(=O)NCc1ccc(C(=N)N)cc1 [Example 1, N-[(3-Carboxybenzyl)sulfonyl]-D-valyl-N^1-{4-[amino(imino)methyl]-benzyl}-L-leucinamide]",IC50,[2],6.2 µM
same,IC50,"[3]; Test A, rFVIIa-rTF, Spectrozyme FVIIa 0.2 mM, 40 min 37° C.",0.064 µM
same,selectivity for Factor VIIa,"[3]; conclusion from Tests A, B and C",selective inhibitor of Factor VIIa
same,APTT percentage prolongation over the baseline value,[1]; Cp B 1.50 μmol/L,26%
same,APTT,"[1]; Cp B 1.50 μmol/L, baseline 35.7 s",45.2 s
same,APTT percentage prolongation over the baseline value,[1]; Cp B 3.20 μmol/L,44%
same,APTT,"[1]; Cp B 3.20 μmol/L, baseline 35.7 s",51.5 s
same,APTT percentage prolongation over the baseline value,[1]; Cp B 4.90 μmol/L,62%
same,APTT,"[1]; Cp B 4.90 μmol/L, baseline 35.7 s",57.7 s
same,APTT percentage prolongation over the baseline value,[1]; Cp B 8.30 μmol/L,105%
same,APTT,"[1]; Cp B 8.30 μmol/L, baseline 35.7 s",73.3 s
same,concentration of B required to reach the same APTT prolongation as that of the mixture (Be),[1]; [5],3.87 µmol/L
same,concentration of B required to reach the same APTT prolongation as that of the mixture (Be),[1]; [6],7.98 µmol/L
same,concentration of B required to reach the same APTT prolongation as that of the mixture (Be),[1]; [7],11.80 µmol/L
same,IC50,[4],3.8 µM
